Measured values taken from ChEMBL document CHEMBL1201862, “PubChem BioAssay data set” (2004).
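Compound exposure: 48 hours, 5 concentrations, 96-well plates. GI50 = concentration required for 50% inhibition of growth.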 The source made the active and inactive calls. Cut-off read from the data, not from the text of the source: active = GI50 up to about 1.1 µM and inactive = higher.

Legend:
Experiment in all cases: NCI anticancer screen, dose series, 48 h
786-0 = test system: 786-0
A549 = test system: A549
ACHN = test system: ACHN
BT-549 = test system: BT-549
CAKI-1 = test system: CAKI-1
CCRF-CEM = test system: CCRF-CEM
COLO 205 = test system: COLO 205
EKVX = test system: EKVX
HCC 2998 = test system: HCC 2998
HCT-116 = test system: HCT-116
HCT-15 = test system: HCT-15
HL-60 = test system: HL-60
HOP-62 = test system: HOP-62
HOP-92 = test system: HOP-92
HT-29 = test system: HT-29
Hs-578T = test system: Hs-578T
IGROV-1 = test system: IGROV-1
K562 = test system: K562
KM12 = test system: KM12
LOX IMVI = test system: LOX IMVI
M14 = test system: M14
MCF7 = test system: MCF7
MDA-MB-231 = test system: MDA-MB-231
MDA-MB-435 = test system: MDA-MB-435
MDA-N = test system: MDA-N
MOLT-4 = test system: MOLT-4
Malme-3M = test system: Malme-3M
NCI-H226 = test system: NCI-H226
NCI-H23 = test system: NCI-H23
NCI-H460 = test system: NCI-H460
NCI-H522 = test system: NCI-H522
NCI/ADR-RES = test system: NCI/ADR-RES
OVCAR-3 = test system: OVCAR-3
OVCAR-4 = test system: OVCAR-4
OVCAR-5 = test system: OVCAR-5
OVCAR-8 = test system: OVCAR-8
PC-3 = test system: PC-3
RPMI-8226 = test system: RPMI-8226
RXF 393 = test system: RXF 393
SF-268 = test system: SF-268
SF-295 = test system: SF-295
SF-539 = test system: SF-539
SK-MEL-28 = test system: SK-MEL-28
SK-MEL-5 = test system: SK-MEL-5
SK-OV-3 = test system: SK-OV-3
SN12C = test system: SN12C
SNB-19 = test system: SNB-19
SNB-75 = test system: SNB-75
SR = test system: SR
SW-620 = test system: SW-620
T47D = test system: T47D
TK-10 = test system: TK-10
U-251 = test system: U-251
UACC-257 = test system: UACC-257
UACC-62 = test system: UACC-62
UO-31 = test system: UO-31
A498 = test system: A498
DU-145 = test system: DU-145

Measured: GI50

CN1CCN(c2nc3cc(F)ccc3n3cccc23)CC1
inactive: 786-0 40.4 µM | A549 36.9 µM | ACHN 31.6 µM | BT-549 49.2 µM | CAKI-1 22 µM | CCRF-CEM 29.8 µM | COLO 205 26.9 µM | EKVX 33.7 µM | HCC 2998 42.1 µM | HCT-116 25.5 µM | HL-60 39.1 µM | HOP-62 31 µM | HOP-92 30.2 µM | HT-29 24.9 µM | Hs-578T 31.4 µM | IGROV-1 30.8 µM | K562 20.4 µM | KM12 39.2 µM | LOX IMVI 15.8 µM | M14 18 µM | MCF7 15.1 µM | MDA-MB-231 44.2 µM | MDA-MB-435 23.4 µM | MDA-N 30.4 µM | MOLT-4 23.1 µM | Malme-3M 25.3 µM | NCI-H226 13.7 µM | NCI-H23 36 µM | NCI-H460 18.5 µM | NCI-H522 46.5 µM | NCI/ADR-RES 50.7 µM | OVCAR-3 82.8 µM | OVCAR-4 30.3 µM | OVCAR-5 51.2 µM | OVCAR-8 51.8 µM | PC-3 28.4 µM | RPMI-8226 40.6 µM | RXF 393 23.4 µM | SF-268 48.6 µM | SF-295 21.2 µM | SF-539 21.1 µM | SK-MEL-28 21.4 µM | SK-MEL-5 20.6 µM | SK-OV-3 45.4 µM | SN12C 48.5 µM | SNB-19 60.3 µM | SNB-75 29 µM | SR 43.8 µM | SW-620 30.5 µM | T47D 29 µM | TK-10 39.6 µM | U-251 41.5 µM | UACC-257 26.6 µM | UACC-62 29.4 µM | UO-31 40.1 µM
32.1 µM: HCT-15

CN(CC(=O)Nc1ccccc1C(=O)O)c1ccccc1
67.1 µM: HCT-15
inactive: 786-0 > 100 µM | A498 > 100 µM | A549 > 100 µM | ACHN > 100 µM | BT-549 > 100 µM | CAKI-1 > 100 µM | CCRF-CEM > 100 µM | DU-145 > 100 µM | EKVX > 100 µM | HCC 2998 > 100 µM | HCT-116 84.3 µM | HL-60 > 100 µM | HOP-62 > 100 µM | HOP-92 > 100 µM | HT-29 > 100 µM | Hs-578T > 100 µM | IGROV-1 > 100 µM | K562 > 100 µM | KM12 > 100 µM | LOX IMVI > 100 µM | M14 > 100 µM | MCF7 > 100 µM | MDA-MB-231 > 100 µM | MDA-N > 100 µM | MOLT-4 > 100 µM | Malme-3M > 100 µM | NCI-H226 > 100 µM | NCI-H23 > 100 µM | NCI-H460 > 100 µM | NCI-H522 > 100 µM | OVCAR-3 > 100 µM | OVCAR-4 > 100 µM | OVCAR-5 > 100 µM | OVCAR-8 > 100 µM | PC-3 > 100 µM | RPMI-8226 > 100 µM | RXF 393 > 100 µM | SF-268 > 100 µM | SF-295 > 100 µM | SF-539 > 100 µM | SK-MEL-28 > 100 µM | SK-MEL-5 > 100 µM | SN12C 40.6 µM | SNB-19 > 100 µM | SNB-75 > 100 µM | SR > 100 µM | SW-620 90.2 µM | T47D > 100 µM | TK-10 > 100 µM | U-251 > 100 µM | UACC-257 > 100 µM | UO-31 > 100 µM
